Entries after “also recorded” stand apart in the source; their conditions may differ.
How the values were obtained:
hES cells = assay: Low-density real-time cell index monitoring (RT-CES impedance reader); type: cell-based, human; details: for time after plating at which cell index rises above background / expansion detectable: 50 μM each factor; for time after plating at which cell index rises above background / expansion detectable / lowest concentration that elicited an effect: StemPro hESC SFM; for lowest concentration that elicited an effect: titration
Description: FIG. 4. Titration of NE and ACh using the RT-CES impedance reader. 1000 hES cells/well were plated in StemPro® hESC SFM containing the indicated concentrations of small molecules (in μM). In such an assay, the timing of when the cell index rises is associated with the proportion of cells that survive and expand at low density.
FIG. 5. Combined effects of small molecules compound combinations in low cell density assays. (A) 1000 hES cells/well were plated in StemPro® hESC SFM containing small molecules at 50 μM (NE, ACh, Adenosine, GABA) or 10 μM (Y27632). The assay was carried out over 5 days using the RT-CES system.
FIG. 6. […] 1000 hES cells/well were plated in StemPro® hESC SFM containing Heregulin, IGF1 and Activin (HIA) and the indicated small molecules. […] Compounds were tested at 10 μM. The DMSO trace is an average of 8 wells. […] Compounds were tested at the indicated concentrations.
FIG. 7. […] 1000 hES cells/well were plated in StemPro® hESC SFM containing the indicated combinations of growth factors and small molecules. Heregulin (H), LR3-IGF1 (I), Activin (A).
FIG. 9. Low-density RT-CES assays of combinations of growth factors and neurotransmitters. 1000 hES cells/well were plated in StemPro® hESC SFM containing the indicated combinations of growth factors and small molecules. Heregulin (H), LR3-IGF1 (I), Activin (A). Small molecules were tested at 50 μM.
Furthermore, pluripotent cells can also be grown in 96-well culture devices that provide real-time measurements of impedance, which can be used to measure cell proliferation and viability using the RT-CES™ methods from ACEA Biosciences, Inc. (www (dot) aceabio (dot) com). Such an approach would enable a label-free identification and quantification of subtle or immediate effects on differentiable cells, as well as measurements of proliferation, apoptosis and changes to morphology, in real time.
To examine more closely the potency of individual neurotransmitters and determine if synergies exist between different factors, low-density assays were performed in real time using an impedance reader. The ACEA biosciences RT-CES system uses 96-well trays that contain embedded microsensors to monitor changes in electrical impedance, which is translated into a measure of cell index. Any overt alteration within a cell culture can be detected, including but not limited to cell proliferation, migration, cell spreading, apoptosis, differentiation and the like. […] Once an undifferentiated culture becomes confluent the cell index remains high, but tends to go down and up (scallop) between daily feedings. Conversely, differentiation is typically indicated by the appearance of distinctive patterns, such as peaks and troughs in the cell index, likely indicative of an epithelial-to-mesenchymal transition, flattening, cell migration, apoptosis or similar differentiation and growth related changes.
Human ES cells were plated at low density, 1000 cells/well, in RT-CES trays and cultured for 10 days (FIG. 4). Cells were plated directly in StemPro® hESC SFM containing carrier control (DMSO), NE, or ACh.

CyT49 cells = assay: Karyotyping (G-banding) of replated suspension cultures after 10 passages; type: cell-based, human; details: after 10 passages in suspension, G-banded
Description: FIG. 11. Suspension hES cell cultured with NE, […] remain undifferentiated. CyT49 cells were grown as suspension aggregates in the presence of NE, […] for 16 passages without differentiating morphologically. After p10, some cells were re-plated to adherent culture and examined by karyotyping and immunofluorescent staining for OCT4 and Tra-1-61. All cultures remained undifferentiated and expressed these pluripotency markers uniformly. (SP) StemPro® SFM HIA, NE (+NE at 50 μM), ACh (+ACh at 50 μM), NE/ACh (+NE/ACh at 50 μM). Karyotype data is shown to the right. […] Cultures containing ACh were aneuploid.
To examine these possibilities, these cultures were serially passaged to p1 (FIG. 10E). Because Y27632 treated aggregates were of a larger size, they required passaging after only 3 days, and only generated about 1.2×10^7 cells during that period. In contrast, the cultures containing NE, ACh or NE/ACh were cultured for 6 days and generated greater than 2×10^7 cells per well. Suspension cultures containing NE, ACh or NE/ACh were maintained for 12 serial passages, in parallel with a HAIF control culture, and all conditions maintained an undifferentiated morphology throughout. Suspension aggregates were dissociated to single cells after 10 passages and replated to adherent culture for analyses. […] Replated cultures were also G-banded to determine their karyotype.

| SMILES | effect on low-density survival/proliferation (hES cells; 1 μM, 1000 cells/well, 10 days) | survival and expansion at low density, single factors and two-factor combinations (hES cells; 50 μM (NE, ACh, Adenosine, GABA) or 10 μM (Y27632), 1000 cells/well, 5 days) | time after plating at which cell index rises above background / expansion detectable (hES cells; 1000 cells/well) | time to apparent confluence (hES cells; 70 μM, 1000 cells/well) [days] | time to apparent confluence (hES cells; 100 μM, 1000 cells/well) [days] | time at which increases in cell index were first detected (hES cells; 5, 10 and 50 μM, 1000 cells/well) [days] | survival/expansion on addition of neurotransmitter (hES cells; HAI or HI background, 1000 cells/well) | survival/expansion (hES cells; StemPro hESC SFM HI background) | rises in impedance / survival and expansion with neurotransmitters (hES cells; small molecules 50 μM, 1000 cells/well, growth factor combinations) | lowest concentration that elicited an effect (hES cells; 1000 cells/well) [µM] | karyotype (CyT49 cells) |
| --- | --- | --- | --- | --- | --- | --- | --- | --- | --- | --- | --- |
| NCC(O)c1ccc(O)c(O)c1 (racemic) [NE, (±)-Norepinephrine (+)-bitartrate] | did not appear to affect low-density survival/proliferation | effective survival and expansion | about 3 days | ~9 | ~10 | ~6.5 | substantially improved survival/expansion | maximal survival/expansion | detected much earlier | 5 |  |
| CC(=O)OCC[N+](C)(C)C [ACh, acetylcholine] |  |  | about 3 days |  |  |  |  |  |  | 5 | aneuploid or abnormal; also recorded: aneuploid |

From US8685726B2, “Small molecules supporting pluripotent cell growth and methods thereof” (Viacyte, Inc., priority 2009, dated 2014)
